The source made the active and inactive calls. The calls are words filed in the database; no cut-off is given here.
What was measured:
[1] = test system: HeLa; assay: Cell cycle distribution in human HeLa cells assessed as accumulation at G0/G1 phase at 1 uM after 48 hrs by propidium iodide-based flow cytometry; type: functional
[2] = Binding affinity to poly A-poly U double stranded RNA by UV visible spectroscopy
[3] = test system: Calf thymus DNA; assay: Binding affinity to calf thymus double stranded DNA by UV visible spectroscopy; type: nucleic-acid assay; conditions: Bos taurus
[4] = Binding affinity to poly A-poly U double stranded RNA by CD spectroscopy
[5] = test system: Calf thymus DNA; assay: Binding affinity to calf thymus double stranded DNA minor groove at drug to DNA ratio of 0 to 0.2 by CD spectroscopy; type: nucleic-acid assay; conditions: Bos taurus
[6] = test system: Calf thymus DNA; assay: Binding affinity to calf thymus double stranded DNA assessed as change in melting temperature at drug to DNA ratio of 0.05 by thermal denaturation study; type: nucleic-acid assay; conditions: Bos taurus
[7] = test system: Calf thymus DNA; assay: Binding affinity to calf thymus double stranded DNA assessed as change in melting temperature at drug to DNA ratio of 0.1 by thermal denaturation study; type: nucleic-acid assay; conditions: Bos taurus
[8] = test system: Nucleic Acid; assay: Binding affinity to poly A-poly U double stranded RNA assessed as change in melting temperature at […] of 0.1 by thermal denaturation study; type: nucleic-acid assay
[9] = test system: Calf thymus DNA; assay: Binding affinity to calf thymus double stranded DNA assessed as change in melting temperature at drug to DNA ratio of 0.2 by thermal denaturation study; type: nucleic-acid assay; conditions: Bos taurus
[10] = test system: Nucleic Acid; assay: Binding affinity to poly A-poly U double stranded RNA assessed as change in melting temperature at […] of 0.2 by thermal denaturation study; type: nucleic-acid assay
[11] = species on record: Bos taurus; assay: Ratio of IC50 of ethidium bromide to IC50 of drug for calf thymus DNA by ethidium bromide displacement assay
[12] = test system: MCF7; assay: Antiproliferative activity against human MCF7 cells at 0.1 to 100 uM after 72 hrs by MTT assay; type: functional, cell-based
[13] = test system: AGS; assay: Antiproliferative activity against human AGS cells at 0.1 to 100 uM after 72 hrs by MTT assay; type: functional, cell-based
[14] = test system: NCI-H358; assay: Antiproliferative activity against human NCI-H358 cells at 0.1 to 100 uM after 72 hrs by MTT assay; type: functional, cell-based
[15] = test system: HEp-2; assay: Antiproliferative activity against human Hep2 cells at 0.1 to 100 uM after 72 hrs by MTT assay; type: functional, cell-based
[16] = test system: Caco-2; assay: Antiproliferative activity against human Caco-2 cells at 0.1 to 100 uM after 72 hrs by MTT assay; type: functional, cell-based
[17] = test system: HeLa; assay: Antiproliferative activity against human HeLa cells at 0.1 to 100 uM after 72 hrs by MTT assay; type: functional, cell-based
[18] = test system: HT-29; assay: Antiproliferative activity against human HT-29 cells at 0.1 to 100 uM after 72 hrs by MTT assay; type: functional, cell-based
[19] = test system: MIA PaCa-2; assay: Antiproliferative activity against human MIAPaCa2 cells at 0.1 to 100 uM after 72 hrs by MTT assay; type: functional, cell-based
[20] = test system: MCF7; assay: Antiproliferative activity against human MCF7 cells at 0.1 uM after 72 hrs by MTT assay relative to control; type: functional; conditions: MCF7, 72 h
[21] = test system: HeLa; assay: Antiproliferative activity against human HeLa cells at 1 uM after 72 hrs by MTT assay relative to control; type: functional
[22] = test system: HEp-2; assay: Antiproliferative activity against human Hep2 cells at 1 uM after 72 hrs by MTT assay relative to control; type: functional; conditions: HEp-2, 72 h
[23] = test system: HeLa; assay: Cell cycle distribution in human HeLa cells assessed as accumulation at G0/G1 phase at 1 uM after 72 hrs by propidium iodide-based flow cytometry; type: functional
[24] = test system: HeLa; assay: Cell cycle distribution in human HeLa cells assessed as accumulation at S phase at 1 uM after 48 hrs by propidium iodide-based flow cytometry; type: functional
[25] = test system: HeLa; assay: Cell cycle distribution in human HeLa cells assessed as accumulation at S phase at 1 uM after 72 hrs by propidium iodide-based flow cytometry; type: functional
[26] = test system: HeLa; assay: Cell cycle distribution in human HeLa cells assessed as accumulation at G2/M phase at 1 uM after 48 hrs by propidium iodide-based flow cytometry; type: functional
[27] = test system: HeLa; assay: Cell cycle distribution in human HeLa cells assessed as accumulation at G2/M phase at 1 uM after 72 hrs by propidium iodide-based flow cytometry; type: functional
[28] = test system: HeLa; assay: Cell cycle distribution in human HeLa cells assessed as accumulation at G2/M phase at 1 uM after 24 hrs by propidium iodide-based flow cytometry; type: functional
[29] = test system: Trypanosoma cruzi; assay: Antitrypanosomal activity against Trypanosoma cruzi clone 14 epimastigotes on day 5; type: functional, organism-based; conditions: 120 h
[30] = test system: Trypanosoma cruzi; assay: Antitrypanosomal activity against Trypanosoma cruzi clone 14 epimastigotes after 8 days; type: functional, organism-based; conditions: 192 h
[31] = test system: Calf thymus DNA; assay: Binding affinity to calf thymus double stranded DNA assessed as change in melting temperature at drug to DNA ratio of 0.3 by thermal denaturation study; type: nucleic-acid assay; conditions: Bos taurus
[32] = test system: Nucleic Acid; assay: Binding affinity to poly A-poly U double stranded RNA assessed as change in melting temperature at […] of 0.3 by thermal denaturation study; type: nucleic-acid assay
[33] = test system: HeLa; assay: Cell cycle distribution in human HeLa cells assessed as accumulation at G0/G1 phase at 10 uM after 48 hrs by propidium iodide-based flow cytometry; type: functional
[34] = test system: HeLa; assay: Cell cycle distribution in human HeLa cells assessed as accumulation at G0/G1 phase at 10 uM after 72 hrs by propidium iodide-based flow cytometry; type: functional
[35] = test system: HeLa; assay: Cell cycle distribution in human HeLa cells assessed as accumulation at S phase at 10 uM after 48 hrs by propidium iodide-based flow cytometry; type: functional
[36] = test system: HeLa; assay: Cell cycle distribution in human HeLa cells assessed as accumulation at S phase at 10 uM after 72 hrs by propidium iodide-based flow cytometry; type: functional
[37] = test system: HeLa; assay: Cell cycle distribution in human HeLa cells assessed as accumulation at G2/M phase at 10 uM after 48 hrs by propidium iodide-based flow cytometry; type: functional
[38] = test system: HeLa; assay: Cell cycle distribution in human HeLa cells assessed as accumulation at G2/M phase at 10 uM after 72 hrs by propidium iodide-based flow cytometry; type: functional
[39] = test system: HeLa; assay: Cell cycle distribution in human HeLa cells assessed as accumulation at G2/M phase at 10 uM after 24 hrs by propidium iodide-based flow cytometry; type: functional

**Q.** With `CC(C)NC(=N)c1ccc2nc(-c3sc(-c4nc5ccc(C(=N)NC(C)C)cc5[nH]4)c4c3OCCO4)[nH]c2c1.Cl.Cl` as the molecule, how does the Activity [1] read?
**A.** 46.9%

**Q.** What about the Activity [2] of the same molecule?
**A.** Active

**Q.** And the Activity [3]?
**A.** Active

**Q.** What about the Activity [4] of the same molecule?
**A.** Active

**Q.** What about the Activity [5] of the same molecule?
**A.** Active

**Q.** And the ΔTm [6]?
**A.** 11.7 °C

**Q.** What about the ΔTm [7] of the same molecule?
**A.** > 15.4 °C

**Q.** What about the ΔTm [8] of the same molecule?
**A.** 0.9 °C

**Q.** What about the ΔTm [9] of the same molecule?
**A.** > 15.4 °C

**Q.** And the ΔTm [10]?
**A.** 0.8 °C

**Q.** And the Ratio IC50 [11]?
**A.** 0.38

**Q.** What about the Activity [12] of the same molecule?
**A.** Active

**Q.** What about the Activity [13] of the same molecule?
**A.** Active

**Q.** And the Activity [14]?
**A.** Active

**Q.** What about the Activity [15] of the same molecule?
**A.** Active

**Q.** And the Activity [16]?
**A.** Active

**Q.** And the Activity [17]?
**A.** Active

**Q.** What about the Activity [18] of the same molecule?
**A.** Active

**Q.** And the Activity [19]?
**A.** Active

**Q.** And the inhibition at 0.1 µM [20]?
**A.** 40%

**Q.** What about the inhibition at 1 µM [21] of the same molecule?
**A.** 40%

**Q.** What about the inhibition at 1 µM [22] of the same molecule?
**A.** 80%

**Q.** And the Activity [23]?
**A.** 30.7%

**Q.** And the Activity [24]?
**A.** 22.4%

**Q.** And the Activity [25]?
**A.** 49.8%

**Q.** And the Activity [26]?
**A.** 35%

**Q.** And the Activity [27]?
**A.** 15.2%

**Q.** And the Activity [28]?
**A.** Active

**Q.** What about the IC50 [29] of the same molecule?
**A.** 4.25 µM

**Q.** And the IC50 [30]?
**A.** 2.4 µM

**Q.** For `N=C(N)c1ccc2nc(-c3sc(-c4nc5ccc(C(=N)N)cc5[nH]4)c4c3OCCO4)[nH]c2c1`, which Activity [2] is on record?
**A.** Active

**Q.** What about the Activity [3] of the same molecule?
**A.** Active

**Q.** What about the Activity [4] of the same molecule?
**A.** Active

**Q.** And the Activity [5]?
**A.** Active

**Q.** And the ΔTm [6]?
**A.** 12.7 °C

**Q.** What about the ΔTm [7] of the same molecule?
**A.** 14.4 °C

**Q.** What about the ΔTm [31] of the same molecule?
**A.** 12.9 °C

**Q.** And the ΔTm [9]?
**A.** 13.9 °C

**Q.** What about the ΔTm [10] of the same molecule?
**A.** -0.3 °C

**Q.** What about the ΔTm [32] of the same molecule?
**A.** -0.9 °C

**Q.** And the Ratio IC50 [11]?
**A.** 0.48

**Q.** And the Activity [12]?
**A.** Active

**Q.** With `CN1CCN(c2ccc3[nH]c(-c4ccc5[nH]c(-c6ccc(O)cc6)nc5c4)nc3c2)CC1` [HOECHST 33258] as the molecule, how does the Activity [12] read?
**A.** Active

**Q.** And the Activity [33]?
**A.** 33.6%

**Q.** What about the Activity [34] of the same molecule?
**A.** 43.1%

**Q.** What about the Activity [35] of the same molecule?
**A.** 23.4%

**Q.** And the Activity [36]?
**A.** 46.3%

**Q.** What about the Activity [37] of the same molecule?
**A.** 23.9%

**Q.** And the Activity [38]?
**A.** 29.9%

**Q.** What about the Activity [39] of the same molecule?
**A.** inactive

**Q.** With `c1cc2nc(-c3sc(-c4nc5ccc(C6=NCCN6)cc5[nH]4)c4c3OCCO4)[nH]c2cc1C1=NCCN1` as the molecule, how does the Activity [2] read?
**A.** Active

**Q.** And the Activity [3]?
**A.** Active

**Q.** What about the Activity [4] of the same molecule?
**A.** Active

**Q.** What about the Activity [5] of the same molecule?
**A.** Active

**Q.** What about the ΔTm [6] of the same molecule?
**A.** 12.2 °C

**Q.** And the ΔTm [7]?
**A.** 11.9 °C

**Q.** And the ΔTm [8]?
**A.** 0.4 °C

**Q.** And the ΔTm [31]?
**A.** 12.3 °C

**Q.** And the ΔTm [9]?
**A.** 11.4 °C

**Q.** And the ΔTm [10]?
**A.** 0.3 °C

**Q.** And the ΔTm [32]?
**A.** -0.2 °C

**Q.** What about the Ratio IC50 [11] of the same molecule?
**A.** 0.38

**Q.** What about the Activity [12] of the same molecule?
**A.** Active

From ChEMBL document CHEMBL1152775, “Effect of 3,4-ethylenedioxy-extension of thiophene core on the DNA/RNA binding properties and biological activity of bisbenzimidazole amidines” (Bioorg Med Chem, 2009)
